How the values were obtained:
[1] = biological target: T1, BSA (Bos taurus, UniProt P02769); assay: CD spectroscopy, secondary structure of BSA with peptide; parameters: species or system bovine
T1 construct: purchased Sigma Aldrich
Description: Circular dichroism spectroscopy, similar to fluorescence and FTIR spectroscopies, is a useful method to determine the changes in the secondary structure of proteins in case of the presence of compounds that can interact with protein molecules. Therefore, in this study, the CD spectra for BSA protein and GGF fraction, in the absence and presence of analyzed peptides L1, L2, and L3, were measured (Figure 3). We wanted to check the changes in the course of the spectrum after adding every portion of the analyzed peptides, from 1:0 to 1:1.5 protein to L1–L3 molar ratios.
Circular dichroism (CD) spectroscopy was performed using the Jasco J-1500 magnetic circular dichroism spectrometer (JASCO International CO., Tokyo, Japan). All measurements for the protein solutions in the absence and presence of the analyzed peptides L1, L2, and L3 were made at room temperature under simulated physiological conditions in pH 7.4, in phosphate buffer as a solvent. The phosphate buffer not only controls the stable pH but also imitates the biological environments. However, its use leads to some limitations for CD measurements due to containing NaCl and KCl. The spectra were baseline corrected (phosphate buffer was used as a baseline) and were measured in the range of 205–250 nm at a scan rate speed of 50 nm/min, with a response time of 1 s, and a 10 mm or 5 mm path length for BSA and GGF, respectively. The concentrations of proteins and analyzed peptides were 1 × 10^−6 mol/dm^3 and 1 × 10^−3 mol/dm^3, respectively. Experiments were performed with protein to ligand molar ratios: 1:0, 1:0.25, 1:0.5, 1:0.75, 1:1, and 1:1.5. In total, 3 cm^3 of a solution of each protein was titrated by successive additions of analyzed peptides. The results were analyzed by CD Multivariate Calibration Creation and CD Multivariate SSE programs (JASCO International CO., Tokyo, Japan), with the conversion of protein concentrations for mean residue molar concentrations.

[2] = biological target: bovine serum albumin (BSA) (Bos taurus, UniProt P02769); assay: Site-marker displacement (phenylbutazone, ibuprofen) on BSA, fluorescence; assay type: binding; parameters: purchased Sigma Aldrich; details: 297 K, BSA 5.0 µM, marker 10.0 µM
Description: To check if L1–L3 bind to BSA at the two Sudlow drug sites (site 1 and 2 [34, 60]), displacement studies were conducted by using phenylbutazone (PHB) and ibuprofen (IBP) as site probes. […] The fluorescence emission spectra of BSA and site markers during the titration of L1–L3 were recorded. The experimental data were analyzed using Equation (3). Binding constants in the presence of site markers were calculated and compared with Kb without PHB or IBP.
Concentrations of BSA and site markers were set at 5.0 × 10^−6 and 10.0 × 10^−6 moldm^−3, respectively.

[3] = system: oxygen-free radical species (ROS); details: previous studies; cited from earlier work
Excerpt: (§1) The subject of this study was oligopeptides with the following sequences: Lys-Dab-Dab-Gly-Orn-Pro-His-Lys-Arg-Lys-Dbt, Lys-Dab-Ala-Gly-Orn-Pro-His-Lys-Arg, and Lys-Dab-Dab-Gly-Orn-Pro-Phe(2-F)-Lys-Arg, which are referred to as L1, L2, and L3, respectively, in the remainder of this work. The investigated oligopeptides consist of an amino group (NH2) in the side chain of unique unnatural amino acids such as Dab (2,4-diaminobutyric acid) and Orn (2,5-diaminopentanoic acid) and standard amino acids such as Lys, and N-terminus and in Dbt in the C-terminal region. Additionally, the presence of the g ...

[4] = previous studies; cited from earlier work
Excerpt: as §1

[5] = BSA:peptide 1:0.25, pH 7.4 phosphate buffer
[6] = BSA:peptide 1:0.5, pH 7.4 phosphate buffer
[7] = BSA:peptide 1:0.75, pH 7.4 phosphate buffer
[8] = BSA:peptide 1:1, pH 7.4 phosphate buffer
[9] = BSA:peptide 1:1.5, pH 7.4 phosphate buffer

T1 sequence (P02769 25-607): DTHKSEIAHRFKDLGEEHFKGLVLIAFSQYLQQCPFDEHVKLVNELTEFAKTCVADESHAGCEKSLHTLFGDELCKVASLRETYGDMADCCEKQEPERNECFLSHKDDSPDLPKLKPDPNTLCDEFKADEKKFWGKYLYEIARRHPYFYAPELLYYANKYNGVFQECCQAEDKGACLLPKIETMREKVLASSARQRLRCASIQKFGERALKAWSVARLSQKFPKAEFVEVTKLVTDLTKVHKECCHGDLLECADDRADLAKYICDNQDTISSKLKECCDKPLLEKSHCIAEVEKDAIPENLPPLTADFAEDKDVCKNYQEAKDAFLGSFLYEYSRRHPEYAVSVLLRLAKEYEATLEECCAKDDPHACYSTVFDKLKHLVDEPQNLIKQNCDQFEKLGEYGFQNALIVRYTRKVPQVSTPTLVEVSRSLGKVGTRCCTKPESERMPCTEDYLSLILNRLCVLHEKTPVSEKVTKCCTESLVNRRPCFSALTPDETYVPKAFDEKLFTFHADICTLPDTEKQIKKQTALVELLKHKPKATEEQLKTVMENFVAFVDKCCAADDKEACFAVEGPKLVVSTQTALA
Chain of bovine serum albumin (BSA) (P02769 25-607): as above

% Other of BSA [1, 5]: 24.6%
% β-Sheet of BSA [1, 5]: 6.0%
% β-Turn of BSA [1, 5]: 10.0%
% α-Helix of BSA ([1]; BSA:peptide 1:0.25, pH 7.4 phosphate buffer, room temperature, BSA 1 µM): 59.4%
% Other of BSA [1, 6]: 24.8%
% α-Helix of BSA [1, 6]: 59.2%
% β-Sheet of BSA [1, 6]: 5.9%
% β-Turn of BSA [1, 6]: 10.1%
% Other of BSA [1, 7]: 25.0%
% α-Helix of BSA [1, 7]: 58.6%
% β-Sheet of BSA [1, 7]: 6.3%
% β-Turn of BSA [1, 7]: 10.1%
% Other of BSA [1, 8]: 25.0%
% α-Helix of BSA [1, 8]: 58.5%
% β-Sheet of BSA [1, 8]: 6.4%
% β-Turn of BSA [1, 8]: 10.1%
% Other of BSA [1, 9]: 25.1%
% α-Helix of BSA [1, 9]: 58.2%
% β-Sheet of BSA [1, 9]: 6.6%
% β-Turn of BSA [1, 9]: 10.1%
reduction in the percentage of α-helix of BSA ([1]; from 1:0 to 1:1.5 BSA:peptide): 2.5%
logKb ([2]; BSA + IBP (site II)): 4.03 ± 0.15
logKb ([2]; BSA + PHB (site I)): 4.00 ± 0.12
Substance: Lys-Dab-Dab-Gly-Orn-Pro-His-Lys-Arg-Lys-Dbt [L1]
effect on level of oxygen-free radical species (ROS) [3]: reduce the level of oxygen-free radical species (ROS)
anti-inflammatory activity [4]: possess anti-inflammatory activity

Reference: article PMC9918186, “Interaction of Positively Charged Oligopeptides with Blood Plasma Proteins” (International Journal of Molecular Sciences, 2023)
